Results on two compounds are retold here after patent US7642059B2, “Single receptor assays for immunosuppressive drugs” (Roche Diagnostics Operations, Inc., priority 2005, dated 2010).

For orientation: Ki means a measure of affinity in units of concentration, obtained from inhibition or displacement. For orientation: Kd means the constant that tells how readily two partners part at equilibrium.

Experiment [1] concerns the target T1, FKBP25 (Homo sapiens, UniProt Q00688).
T1 sequence (Q00688 1-224): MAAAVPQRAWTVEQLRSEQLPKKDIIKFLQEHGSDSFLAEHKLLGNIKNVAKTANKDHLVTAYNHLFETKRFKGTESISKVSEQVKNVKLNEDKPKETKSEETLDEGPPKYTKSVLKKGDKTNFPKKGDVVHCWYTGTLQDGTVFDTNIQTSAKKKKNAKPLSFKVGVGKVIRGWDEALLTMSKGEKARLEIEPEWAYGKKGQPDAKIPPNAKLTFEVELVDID
The settings on record: FKBP25, rotamase assay; cited from earlier work.

Experiment [2] addresses T1, FKBP25. In words: FKBP25 microparticle / rapamycin-aminodextran agglutination assay (cross-reactivity). In kind it is binding. As for the experimental part:
A first working reagent (R1 reagent) was prepared by making 175 mM PIPES buffer, pH 7.4. To this was added rapamycin-aminodextran conjugate to give a concentration of 400 ng/mL. To this was also added polyacrylic acid to give a concentration of 1.3%.
A second working reagent (R2 reagent) was prepared as described in Example 12 and used at final concentration of 0.14% (w/v) in 50 mM MOPS buffer at pH 7.9.
A stock solution of rapamycin was made (100 μg/mL) in DMSO. Calibrators were prepared from the stock by making solution of 50, 100 and 200 ng/mL of rapamycin in 0.9% saline solution.
An assay was performed using a Hitachi 917 automated analyzer (Roche Diagnostics Corporation, Indianapolis) using a 35 μL sample volume, 180 μL of the first working reagent and 80 μL of the second working reagent (measured OD at 800 nm).
Known quantities of tacrolimus were then assayed as above. By comparing the observed reading from the rapamycin curve obtained to the actual amount of tacrolimus in the samples assayed, tacrolimus cross-reactivity was determined to be 7% in this assay. That is, a sample containing 1000 ng/ml tacrolimus gave a reading from the curve of 70 ng/ml rapamycin. Cross-reactivity is thus (70/1000)×100%=7%.

For a further experiment, the target named is FKBP14. The conditions noted are these: cited from earlier work.

For the compound `CO[C@H]1C[C@@H]2CC[C@@H](C)[C@@](O)(O2)C(=O)C(=O)N2CCCC[C@H]2C(=O)O[C@H]([C@H](C)C[C@@H]2CC[C@@H](O)[C@H](OC)C2)CC(=O)[C@H](C)/C=C(\C)[C@@H](O)[C@@H](OC)C(=O)[C@H](C)C[C@H](C)/C=C/C=C/C=C/1C` [rapamycin], the Ki on FKBP25 [1] is 0.9 nM.
Consider `C=CC[C@@H]1/C=C(\C)C[C@H](C)C[C@H](OC)[C@H]2O[C@@](O)(C(=O)C(=O)N3CCCC[C@H]3C(=O)O[C@H](/C(C)=C/[C@@H]3CC[C@@H](O)[C@H](OC)C3)[C@H](C)[C@@H](O)CC1=O)[C@H](C)C[C@@H]2OC` [tacrolimus], for which the cross-reactivity on FKBP25 [2] (read from rapamycin curve, Hitachi 917, OD at 800 nm) was found to be 7%. For the same compound, at FKBP25 [2] (sample containing 1000 ng/ml tacrolimus), the “reading from the curve as rapamycin” value was 70 ng/mL. On FKBP25 [1], the inhibition constant Ki was 200 nM. In addition, at FKBP14, the Kd is 1.8 nM and the “fold lower Kd for tacrolimus than sirolimus” value is listed as “about 20 fold”.
